The results in this text go back to patent US7323474B2, “Pyridine derivatives inhibiting angiogenesis and/or VEGF receptor tyrosine kinase” (Novartis AG, priority 2000, dated 2008).

Series [1] has as its target T1, human VEGF receptor (KDR) (Homo sapiens, UniProt P35968).
T1 construct: expressed in transfected cells; host or cells: CHO cells (stably transfected)
In words: Test for activity against VEGF-induced KDR phosphorylation (transfected CHO cells, sandwich ELISA). Format: cell-based. The conditions noted are these: 2 h compound, then VEGF 20 ng/ml for 5 min, % inhibition of VEGF-induced KDR phosphorylation, read-out: ED50 (the source's name). The method, then:
Using a further cellular in vitro experiment, the inhibition of the VEGF-induced KDR autophosphorylation can be confirmed: Transfected CHO cells, which permanently express human VEGF receptor (KDR), are seeded in culture medium (with 10% fetal calf serum=FCS) in 6-well cell culture plates and incubated at 37° C., 5% CO2 until they are approximately 80% confluent. The compounds to be tested are then diluted in culture medium (without FCS, with 0.1% bovine serum albumin=BSA) and added to the cells. (Controls receive medium without test compounds). After incubation for two hours at 37° C., recombinant VEGF is added; the final VEGF concentration is 20 ng/ml. After incubating for a further five minutes at 37° C., the cells are washed twice with ice-cold PBS (phosphate-buffered physiological saline) and immediately lysed in 100 μl lysis buffer per well. The lysates are then centrifuged to remove the cell nuclei, and the protein concentrations of the supematants are determined by a commercial protein assay (BIORAD). The lysates can then be either further used immediately or stored at −20° C. if required. To determine the KDR phosphorylation, a “sandwich ELISA” is carried out. A monoclonal antibody to KDR (for example Mab 1495.12.14; prepared by H. Towbin) is immobilised on black ELISA plates (OptiPlate™ HTRF-96 by Packard). Subsequently, the plates are washed and any remaining free protein binding sites are neutralised with 1% BSA in PBS. The cell lysates (20 μg protein per well) are then incubated over night at 4° C. together with an anti-phosphotyrosin antibody, which is coupled with alkaline phosphatase (PY20:AP from Transduction Laboratories). […] Luminescence is measured in a Packard Top Count Microplate Scintillation Counter (Top Count). The difference between the signal from the positive control (stimulated with VEGF) and that from the negative control (not stimulated with VEGF) corresponds to the VEGF-induced KDR phosphorylation (=100%). The activity of the tested substances is calculated as % inhibition of the VEGF-induced KDR phosphorylation, whereby the concentration of a substance which effects semi-maximum inhibition is called ED50 (effective dose for 50% inhibition). […] Test for activity against VEGF-Induced KDR phosphorylation The cellular in vitro test is carried out using VEGF and KDR-transfected cells, as described above. The ED50 values determined are given below, insofar as they have been accurately recorded: […]
A general note: An ELISA detects its analyte on a solid surface through an enzyme-linked reagent.

Series [2] deals with T2, KDR VEGF-receptor tyrosine kinase (Homo sapiens, UniProt P35968).
T2 construct: instead of the Flt-1 kinase domain, the KDR kinase domain
T2 sequence (P35968 834-1162 limits assumed): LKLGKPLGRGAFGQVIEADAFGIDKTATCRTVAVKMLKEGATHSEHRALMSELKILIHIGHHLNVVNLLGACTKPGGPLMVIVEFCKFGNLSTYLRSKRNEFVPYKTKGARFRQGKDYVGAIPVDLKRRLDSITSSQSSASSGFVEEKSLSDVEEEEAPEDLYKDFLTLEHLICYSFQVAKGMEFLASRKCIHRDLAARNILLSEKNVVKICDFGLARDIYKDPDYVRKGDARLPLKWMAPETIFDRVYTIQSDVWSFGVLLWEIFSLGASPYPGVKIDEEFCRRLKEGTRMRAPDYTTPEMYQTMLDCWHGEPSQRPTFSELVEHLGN
In words: Test for activity against KDR VEGF-receptor tyrosine kinase. It is filed as biochemical. The note with it: KDR kinase domain; poly(Glu,Tyr) 4:1 8 μg/ml, 8 μM [33P]-ATP, 10 minutes at room temperature. The method, then: Test for activity against VEGF-receptor tyrosine kinase: the test is conducted using Flt-1 VEGF-receptor tyrosine kinase. The detailed procedure is as follows: 30 μl kinase solution (kinase domain of Flt-1, Shibuya et al., Oncogene 5, 519-24 [1990], according to the specific activity, in order to achieve an activity of 4000-6000 counts per minute [cpm] in the sample without inhibitor) in 20 mM Tris.HCl pH 7.5, 3 mM manganese dichloride (MnCl2), 3 mM magnesium chloride (MgCl2) and 3 μg/ml poly(Glu,Tyr) 4:1 (Sigma, Buchs, Switzerland), 8 μM [^33P]-ATP (0.2 μCi/batch), 1% dimethyl sulfoxide, and 0 to 50 μM of the compound to be tested are Incubated together for 10 minutes at room temperature. The reaction is then ended by the addition of 10 μl 0.25 M ethylenediaminetetraacetate (EDTA) pH 7. Using a multichannel dispenser (LAB SYSTEMS, USA), an aliquot of 20 μl is applied to a PVDF (=polyvinyl difluoride) Immobilon P membrane (Millipore, USA), which is incorporated into a Millipore microtitre filter manifold, and connected to a vacuum. Following complete elimination of the liquid, the membrane is washed 4 times successively in a bath containing 0.5% phosphoric acid (H3PO4), incubated for 10 minutes each time while shaking, then mounted in a Hewlett Packard TopCount Manifold and the radioactivity measured after the addition of 10 μl Microscint® (β-scintillation counter liquid; Packard USA). IC50-values are determined by linear regression analysis of the percentages for the inhibition of each compound in three concentrations (as a rule 0.01, 0.1, and 1 μM). Inhibition values (IC50 50% inhibition of activity compared with the control without an inhibitor of formula I) in the range of 5 nM to 1 μM, especially In the range of 5 nM to 500 nM are found.
Analogously to the above test, the efficacy of the compounds according to the invention as inhibitors of VEGF activity can be tested using the VEGF receptor tyrokinase KDR. In this test, instead of the Flt-1 kinase domain, the KDR kinase domain (Parast et al., Biochemistry 37 (47), 16788-801 (1998)) is used. The only difference in carrying out this test from the above test lies in the concentration of poly(Glu,Tyr) 4:1 (8 μg/ml), MnCl2 (1 mM) and MgCl2 (10 mM).
Test for activity against KDR VEGF-receptor tyrosine kinase The test is conducted using KDR VEGF-receptor tyrosine kinase, as described hereinabove. The IC50 values determined are given below, insofar as they have been accurately recorded: […]

T1 sequence (P35968 20-1356): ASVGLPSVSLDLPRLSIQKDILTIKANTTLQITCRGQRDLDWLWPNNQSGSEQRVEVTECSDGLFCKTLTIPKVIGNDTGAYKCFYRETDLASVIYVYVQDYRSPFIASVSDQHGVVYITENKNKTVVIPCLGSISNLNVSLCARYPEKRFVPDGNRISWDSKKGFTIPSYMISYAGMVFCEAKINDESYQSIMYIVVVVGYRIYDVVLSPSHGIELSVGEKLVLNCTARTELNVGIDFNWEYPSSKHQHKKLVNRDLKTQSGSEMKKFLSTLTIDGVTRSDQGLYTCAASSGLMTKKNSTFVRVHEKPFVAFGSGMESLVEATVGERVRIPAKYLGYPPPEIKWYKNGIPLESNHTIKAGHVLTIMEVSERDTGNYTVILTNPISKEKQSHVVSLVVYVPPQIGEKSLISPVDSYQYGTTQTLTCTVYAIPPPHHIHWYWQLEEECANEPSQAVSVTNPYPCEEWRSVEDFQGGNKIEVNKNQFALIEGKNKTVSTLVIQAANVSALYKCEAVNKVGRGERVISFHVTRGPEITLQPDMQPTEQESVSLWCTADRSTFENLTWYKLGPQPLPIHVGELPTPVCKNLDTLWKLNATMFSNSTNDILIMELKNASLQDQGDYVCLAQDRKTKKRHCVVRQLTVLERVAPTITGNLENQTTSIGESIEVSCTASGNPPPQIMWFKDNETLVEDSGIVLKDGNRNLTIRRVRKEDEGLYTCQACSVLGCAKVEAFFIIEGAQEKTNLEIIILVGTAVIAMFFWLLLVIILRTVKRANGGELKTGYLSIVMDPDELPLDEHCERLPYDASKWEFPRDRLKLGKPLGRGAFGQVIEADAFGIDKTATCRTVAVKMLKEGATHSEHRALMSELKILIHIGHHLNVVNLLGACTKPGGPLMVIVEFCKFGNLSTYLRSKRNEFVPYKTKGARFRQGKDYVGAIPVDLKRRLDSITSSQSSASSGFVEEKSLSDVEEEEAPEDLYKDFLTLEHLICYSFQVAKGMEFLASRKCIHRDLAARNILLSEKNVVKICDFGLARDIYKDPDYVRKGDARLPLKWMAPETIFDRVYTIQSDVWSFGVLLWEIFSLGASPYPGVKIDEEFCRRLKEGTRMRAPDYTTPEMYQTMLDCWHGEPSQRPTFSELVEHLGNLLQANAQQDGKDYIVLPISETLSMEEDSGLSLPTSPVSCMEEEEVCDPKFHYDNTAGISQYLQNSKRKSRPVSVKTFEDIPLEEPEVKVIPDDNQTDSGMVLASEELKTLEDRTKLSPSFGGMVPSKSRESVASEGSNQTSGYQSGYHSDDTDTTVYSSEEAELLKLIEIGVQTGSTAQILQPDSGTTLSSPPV

On to `CC(C)(C)c1ccc(Nc2ncc(Cc3ccc(O)nc3)c3ncccc23)cc1` [Example 41e, 5-[4-(tert-butyl)-anilino]-8-[(6-hydroxy-pyridin-3-yl)-methyl]-[1,6]naphthyridine], for which the IC50 in series [1] was 22 nM. The term melting point denotes the temperature, or range, at which the solid turns liquid. As to `FC(F)(F)c1cc(Nc2ncc(CCc3cccnc3)c3ccccc23)ccc1Cl` [Example 13], the melting point turned out to be 159 °C. The IC50 in series [2] is 53 nM. On the same counts, the results for `CCc1ccc(Nc2ncc(CCc3ccc(C)nc3)c3ccccc23)cc1Br` [Example 21] are 103 to 105 °C and 15 nM. On the same counts, the results for `CC(C)(C)[C@H]1CC[C@H](Nc2ncc(CCc3cccnc3)c3ccccc23)CC1` [16 (E isomer), trans 1-(4-tert-butyl-cyclohexylamino)-4-[2-(pyridin-3-yl)-ethyl]-isoquinoline] are 124 to 125 °C and 196 nM.

As for `Cc1ccc(CCc2cnc(N[C@H]3CC[C@H](C(C)C)CC3)c3ccccc23)cn1` [Example 19, trans 1-(4-isopropyl-cyclohexylamino)-4-[2-(6-methyl-pyridin-3-yl)-ethyl]-isoquinoline], in series [2], the IC50 was 127 nM. With `CC(C)(C)c1ccc(Nc2ncc(Cc3ccc(O)nc3)c3ccccc23)cc1` [Example 34e, 1-[4-(tert-butyl)-anilino]4-[(6-hydroxy-pyridin-3-yl)-methyl]-isoquinoline], the IC50 in series [1] was 19 nM. Turning to `CC(C)[C@H]1CC[C@H](Nc2ncc(Cc3ccc(O)nc3)c3ncccc23)CC1` [Example 39, trans 5-(4-isopropyl-cyclohexylamino)-8-[(6-hydroxy-pyridin-3-yl)-methyl]-[1,6]naphthyridine], the melting point fell in the range of 232 to 235 °C. `CCc1ccc(Nc2ncc(CCc3cccnc3)c3ccccc23)cc1Br` [Example 9, 1-(3-bromo-4ethylanilino)-4-[2-(pyridin-3-yl)-ethyl]-isoquinoline] registered a melting point of 119 °C. Also, the IC50 in series [2] came to 4 nM. In series [1], the IC50 came to 91 nM. For the molecule `CC(C)(C)c1cccc(Nc2ncc(CCc3cccnc3)c3ccccc23)c1` [Example 10], the melting point is 133 to 134 °C. In series [2], this molecule displayed an IC50 of 33 nM. As to `CC(C)[C@H]1CC[C@H](Nc2ncc(Cc3ccc(O)nc3)c3ccccc23)CC1` [29 (E isomer), trans 1-(4-isopropyl-cyclohexylamino)-4-[(6-hydroxy-pyridin-3-yl)-methyl]-isoquinoline], the IC50 in series [2] amounted to 87 nM. Still for that read-out and setting: the value for `Cc1ccc(CCc2cnc(Nc3ccc(C(C)C)c(C)c3)c3ccccc23)cn1` [Example 20] was 48 nM. Take `COc1ccc(Cc2cnc(Nc3ccc(C(C)(C)C)cc3)c3cccnc23)cn1` [Example 40e, 5-[4-(tert-butyl)-anilino]-8-[(6-methoxy-pyridin-3-yl)-methyl]-[1,6]naphthyridine]: the IC50 in series [2] is 81 nM; in series [1] it was 52 nM.

As for `CC(C)(C)c1ccc(Nc2ncc(CCc3cccnc3)c3ccccc23)cc1` [Example 5], the melting point was 81 °C. The IC50 in series [2] was determined as 25 nM. Moreover, the IC50 in series [1] turned out to be 10 nM. Regarding `CCc1ccc(Nc2ncc(Cc3ccc(O)nc3)c3ncccc23)cc1Br` [Example 37b, 5-(3-bromo-4-ethyl-anilino)-8-[(6-hydroxy-pyridin-3-yl)-methyl]-[1,6]naphthyridine], the IC50 in series [2] is 92 nM. Regarding `FC(F)(F)c1cc(Nc2ncc(CCc3cccnc3)c3ccccc23)cc(C(F)(F)F)c1` [Example 12], the melting point stood at 174 °C. In series [2], this molecule gave an IC50 of 192 nM. For the molecule `CCc1ccc(Nc2ncc(Cc3ccc(O)nc3)c3ccccc23)cc1Br` [Example 34g, 1-(3-bromo-4-ethylanilino]-4-[(6-hydroxy-pyridin-3-yl)-methyl]-isoquinoline], the IC50 in series [2] was 137 nM; in series [1], 29 nM. With `Cc1ccc(Nc2ncc(/C=C\c3cccnc3)c3ccccc23)cc1Br` [Example 2, (Z) 1-(3-bromo-4-methylanilino)-4-[2-(pyridin-3-yl)-vinyl]-isoquinoline], the IC50 in series [2] worked out at 49 nM. The molecule `CCc1ccc(Nc2ncc(Cc3ccc(OC)nc3)c3ncccc23)cc1Br` [Example 37a, 5-(3-bromo-4-ethyl-anilino)-8-[(6-methoxy-pyridin-3-yl)-methyl]-[1,6]naphthyridine] had a melting point of 142 to 146 °C. Molecule `Nc1cc(Cl)cc(C(F)(F)F)c1` [Example 7, 5-amino-3-chloro-benzotrifluoride] returned an IC50 in series [2] of 185 nM. `Cc1cc(Nc2ncc(CCc3cccnc3)c3ccccc23)ccc1C(C)C` [Example 8]: the melting point lay within 133 to 134 °C. The same molecule displayed an IC50 in series [2] of 27 nM. Also, the IC50 in series [1] came to 11 nM. The molecule `FC(F)(F)c1ccc(Nc2ncc(CCc3cccnc3)c3ccccc23)cc1C(F)(F)F` [Example 11] came in with a melting point of 124 to 125 °C. This molecule also yielded an IC50 in series [2] of 41 nM. On the same counts, the results for `Clc1ccc(Nc2ncc(CCc3cccnc3)c3ccccc23)cc1` [Example 1, 1-(4chloroanilino)-4-[2-(pyridin-3-yl)-ethyl]-isoquinoline] are 157 to 158 °C and 105 nM. Consider `COc1ccc(Cc2cnc(Nc3ccc(C(C)(C)C)cc3)c3ccccc23)cn1` [Example 33e, 1-[4-(tert-butyl)-anilino]-4-[(6-methoxy-pyridin-3yl)-methyl]-isoquinoline], for which the IC50 in series [1] was determined as 28 nM. `Cc1nc(Nc2cccc(C(F)(F)F)c2)c2ccccc2c1Cc1ccc(Cl)nc1` [Example 45a, 1-(3-trifluoromethyl-anilino)-4-[(6-chloro-pyridin-3-yl)-methyl]-3-methylisoquinoline]: the melting point stood at 137 °C. Consider `Cc1ccc(Nc2ncc(/C=C/c3cccnc3)c3ccccc23)cc1Br` [Example 3, (E) 1-(3-bromo-4-methylanilino)-4-[2-(pyridin-3-yl)-vinyl]-isoquinoline], for which the melting point was 196 to 197 °C. The IC50 in series [2] came to 123 nM.
